Assay results from patent US9834750B2, “Cell-to-cell communication without exchange of mediating diffusible factors or using any physical contact between cells” (priority 2013, dated 2017).
One block for each molecule: values may come before it.

Experiments:
P2X3 = molecular target: T1, P2X3 (Mus musculus, UniProt Q3UR32); experiment: ATP-induced [Ca++]i transients in DRG neurons, Fura-2 fluorescence imaging, dish-in-dish culture; format: cell-based
T1 construct: endogenous in cells; host or cells: primary lumbosacral DRG neurons of C57BL/6J mice
T1 sequence (Q3UR32 1-397): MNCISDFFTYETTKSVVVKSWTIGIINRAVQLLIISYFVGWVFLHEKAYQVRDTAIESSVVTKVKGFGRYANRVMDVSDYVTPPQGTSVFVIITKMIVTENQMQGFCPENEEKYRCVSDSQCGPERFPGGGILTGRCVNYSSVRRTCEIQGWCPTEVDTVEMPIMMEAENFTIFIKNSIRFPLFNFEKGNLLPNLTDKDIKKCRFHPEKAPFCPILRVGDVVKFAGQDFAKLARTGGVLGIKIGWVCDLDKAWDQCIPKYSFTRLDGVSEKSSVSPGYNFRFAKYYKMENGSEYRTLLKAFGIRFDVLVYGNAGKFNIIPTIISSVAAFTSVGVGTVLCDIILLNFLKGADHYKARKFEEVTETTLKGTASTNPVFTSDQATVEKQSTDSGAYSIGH
Experimental: (§1) DRG tissues were obtained from C57BL/6J (Jackson Laboratory; 20 g). Upon arrival, mice were housed in microisolator caging and maintained on 12 hour light/dark cycle in a temperature controlled environment. The mice had access to food and water ad libitum for two weeks. All studies were carried out in accordance with the guidelines of the Institutional Animal Care and Use Committee (IACUC) of Charles R. Drew University of Medicine and Science and the NIH Guide for the Care and Use of Laboratory Animals.
(§2) Lumbosacral adult DRG cells (level L1-S-1) were collected under sterile technique and placed in ice cold medium Dulbecco's Modified Eagle's Medium (DMEM; Sigma-Aldrich, St. Louis, Mo.). Adhering fat and connective tissue were removed and each isolated DRG tissue was minced with sterile scissors and placed immediately in a medium consisting of 5 ml of DMDM containing 0.5 mg/ml of trypsin (Sigma Type III), 1 mg/ml of collagenase (Sigma Type IA) and 0.1 mg/ml of DNAase (Sigma Type III) and all kept at 37 degrees Centigrade for 30 minutes with agitation.
(§3) After dissociation of the ganglia soybean trypsin inhibitor (Sigma Type III) was used to terminate cell dissociation. Cell suspensions were centrifuged for one minute at 1000 rpm and the cell pellets were resuspended in DMEM supplemented with 5% fetal bovine serum (FBS), 2 mM glutamine-penicillin-streptomycin mixture, 1 ug/ml DNAase, and 5 ng/ml of NGF (Sigma).
(§4) Cells were then placed on Matrigel® (Invitrogen, Carlsbad, Calif.) coated 15-mm coverslips (Collaborative Research Co., Bedford Pa.) and kept at 37 degrees Centigrade in a 5% CO2 incubator for 24 hours, then given fresh media and maintained in primary culture until used for experimental procedures.
(§5) Adjacent culture of SH-SY5Y cells with dorsal root ganglion cells occurred as follows. A dish-in-dish system involving a physically separate outer “surround” cell culture well and a separate inner “center” cell culture well was constructed, both wells capable of being managed independently (FIG. 1).
(§6) Mouse DRG neuron cells were seeded in the center well which medium consisted of 5% FBS, 2 mM glutamine-penicillin-streptomycin mixture, 1 ug/mL DNAase, and 5 ng/mL NGF for 24 hours at 5% CO2 and 37 degrees Centigrade. Thus, the two cell populations were co-dish-in-dish cultured, separated but adjacent to each other for 12 hours prior to assessing [Ca++]i response to chemical stimulation. […]
Culture of normal control DRG cells juxtaposed with media containing no cells took place as follows. To establish additional control conditions for assessing the effect of non-diffusible cell-to-cell communication two additional controls were performed: 1) dish-in-dish culture of normal control DRG cells in the center culture well with DRG cell media only in the surround culture well; and 2) dish-in-dish culture of normal control DRG cells in the center culture well with human SH-SY5Y neuroblastoma cell media only in the surround culture well.
(§7) [Ca++]i fluorescence imaging was carried out. DRG neurons were loaded with fluorescent dye […] Fura-2 AM (Invitrogen, Carlsbad, Calif.) for 45 minutes at 37 degrees Centigrade in HBSS supplemented with 20 mM HEPES, pH 7.4. The cover slips were mounted in an RC-26 recording chamber P-4 (Warner Instruments, Hamden, Conn.) and placed on a stage of an Olympus IX51 inverted microscope (Olympus America, Center Valley, Pa.). Observations were made at room temperature (20-23 degrees Centigrade) with a 20× UApo/340 objective. Neurons were bathed and perfused with HBSS buffer using gravity at a rate of 1-2 ml/min.
(§8) Fluorescence intensity at 505 nm with excitation at 334 nm and 380 nm were captured as digital images (sampling rates from 0.1 to 2 seconds). Regions of interest were identified within the soma from which quantitative measurements were made by re-analysis of stored image sequences using Slidebook® Digital Microscopy software. […]

DRG neurons = experiment: basal [Ca++]i in DRG neurons, Fura-2 fluorescence imaging; format: cell-based, mouse; settings: E2 100 nM by itself
Experimental: as §1
Lumbosacral adult DRG cells (level L1-S-1) were collected under sterile technique and placed in ice cold medium Dulbecco's Modified Eagle's Medium (DMEM; Sigma-Aldrich, St. Louis, Mo.). […]
[Ca++]i fluorescence imaging was carried out. […]
as §8, with “software. [Ca++]i was determined by ratiometric method of Fura-2 fluorescence from calibration of a series of buffered Ca++ standards.” for “software.”
All of the data were expressed as the mean±SEM. […]

TRPV1 = molecular target: T2, TRPV1 (Mus musculus, UniProt Q704Y3); experiment: capsaicin-induced [Ca++]i transients in DRG neurons, Fura-2 fluorescence imaging, dish-in-dish culture; format: cell-based
T2 construct: endogenous in cells; host or cells: primary lumbosacral DRG neurons of C57BL/6J mice
T2 sequence (Q704Y3 whole entry): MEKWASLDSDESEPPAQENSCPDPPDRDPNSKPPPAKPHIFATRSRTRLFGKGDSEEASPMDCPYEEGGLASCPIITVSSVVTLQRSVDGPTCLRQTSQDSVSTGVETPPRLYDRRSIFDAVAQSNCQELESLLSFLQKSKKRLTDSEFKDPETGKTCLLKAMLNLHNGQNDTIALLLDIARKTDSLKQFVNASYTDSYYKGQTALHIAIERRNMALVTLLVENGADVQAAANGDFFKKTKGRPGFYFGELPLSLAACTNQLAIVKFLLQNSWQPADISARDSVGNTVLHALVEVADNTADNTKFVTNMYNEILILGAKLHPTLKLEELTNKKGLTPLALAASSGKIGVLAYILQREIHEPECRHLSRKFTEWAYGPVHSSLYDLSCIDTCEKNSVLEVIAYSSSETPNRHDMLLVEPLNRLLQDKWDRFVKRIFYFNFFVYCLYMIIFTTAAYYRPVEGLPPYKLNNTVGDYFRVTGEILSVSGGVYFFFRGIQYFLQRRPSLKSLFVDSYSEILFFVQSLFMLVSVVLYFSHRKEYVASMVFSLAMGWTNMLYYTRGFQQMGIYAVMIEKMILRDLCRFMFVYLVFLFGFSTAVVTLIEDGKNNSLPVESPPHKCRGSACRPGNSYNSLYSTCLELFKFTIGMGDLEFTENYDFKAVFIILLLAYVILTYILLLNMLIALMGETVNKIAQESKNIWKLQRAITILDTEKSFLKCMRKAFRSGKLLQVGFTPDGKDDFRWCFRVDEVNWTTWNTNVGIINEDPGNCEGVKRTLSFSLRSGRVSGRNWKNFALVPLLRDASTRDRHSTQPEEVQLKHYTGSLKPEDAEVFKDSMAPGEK
Experimental: as §1, §2, §3, §4, §5, §6, §7
Fluorescence intensity at 505 nm with excitation at 334 nm and 380 nm were captured as digital images (sampling rates from 0.1 to 2 seconds). Regions of interest were identified within the soma from which quantitative measurements were made by re-analysis of stored image sequences using Slidebook® Digital Microscopy software. [Ca++]i was determined by ratiometric method of Fura-2 fluorescence from calibration of a series of buffered Ca++ standards. E2 was applied acutely for five minutes onto the experimental chamber.
Repeated application of drugs was achieved by superfusion into individual neurons in a rapid mixing chamber for specific intervals (100-500 ms). […]

[1] = neuroblastoma SH-SY5Y cells in the surround well

SMILES: Nc1ncnc2c1ncn2[C@@H]1O[C@H](COP(=O)(O)OP(=O)(O)OP(=O)(O)O)[C@@H](O)[C@H]1O [ATP]
[Ca++]i spikes on ATP application (P2X3; 10 second application of ATP 10 uM, DRG neurons in center and surround wells): equal [Ca++]i spikes
ATP-induced [Ca++]i responses, initial stimulation (P2X3; ATP 10 uM, DRG neurons exposed to KCL (50 mM) in the surround well, p<0.001): four fold higher
ATP-induced [Ca++]i response with media only in surround well (P2X3; ATP 10 uM, SH-SY5Y media without cells in the surround well): as occurred under control conditions
ATP-induced [Ca++]i response (P2X3; ATP 10 uM, neuroblastoma SH-SY5Y cells in the surround well, n=4): 193 ± 40.6 nM
ATP-induced [Ca++]i responses, subsequent stimulation (P2X3; ATP 10 uM, ten minute intervals, DRG neurons exposed to KCL (50 mM) in the surround well, p<0.001): significantly reduced
ATP-induced [Ca++]i transient (P2X3; initial ATP (10 uM) response before E2, DRG cells in surround well (control), mean±SEM, n=5): 425.86 ± 49.5 nM
ATP-stimulated [Ca++]i with KCL media only in surround well (P2X3; media with 50 mM KCL without cells in the surround well): as was observed in the control

SMILES: O=C(O)CN(CC(=O)O)c1ccccc1OCCOc1ccccc1N(CC(=O)O)CC(=O)O [BAPTA]
effect on ATP-induced [Ca++]i spikes (P2X3; BAPTA 10 mM, Ca++-free media): eliminated

SMILES: C[C@]12CC[C@@H]3c4ccc(O)cc4CC[C@H]3[C@@H]1CC[C@@H]2O [E2, 17 β-estradiol]
effect on basal [Ca++]i (DRG neurons): no effect
ATP-induced [Ca++]i transient after E2 (P2X3; ATP 10 uM after five-minute incubation with E2 (100 nM), mean±SEM, n=5, p<0.05): 171.17 ± 48.9 nM
reversibility of the effect on ATP-induced [Ca++]i (P2X3; E2 100 nM): reversible
effect on ATP-induced [Ca++]i transients (P2X3; E2 100 nM, control conditions): attenuated
effect of E2 on ATP-induced P2X3-mediated [Ca++]i (P2X3; [1]): abolished
peak of capsaicin-induced [Ca++]i transients with E2 (TRPV1; capsaicin 100 nM, E2 100 nM applied first, mean±SEM, n=5, p<0.05): 175.01 ± 34.8 nM
effect on capsaicin-induced TRPV1-mediated [Ca++]i flux (TRPV1; [1]): attenuated

SMILES: C[C@]12CC[C@@H]3c4ccc(O)cc4C[C@@H](CCCCCCCCC[S+]([O-])CCCC(F)(F)C(F)(F)F)[C@H]3[C@@H]1CC[C@@H]2O (some centres unmarked) [ICI 182,780]
effect on the 17 β-estradiol inhibitory effect on ATP-induced [Ca++]i transients (P2X3; ICI 182,780 1 nM): blocked

Now from value to molecule:

effect on ATP-induced [Ca++]i transients (P2X3; pretreatment with PPADS 5 uM, ATP 10 uM): blocked
SMILES: Cc1nc(N=Nc2ccc(S(=O)(=O)O)cc2S(=O)(=O)O)c(COP(=O)(O)O)c(C=O)c1O [PPADS]

reversibility of the effect of capsaicin (TRPV1): not reversible
peak of capsaicin-induced [Ca++]i transients (TRPV1; capsaicin 100 nM without E2, control conditions, mean±SEM, n=5): 399.21 ± 44.5 nM
capsaicin-induced [Ca++]i response with media only in surround well (TRPV1; capsaicin 100 nM, SH-SY5Y media without cells in the surround well): as occurred under control conditions
capsaicin-induced [Ca++]i response (TRPV1; capsaicin 100 nM, neuroblastoma SH-SY5Y cells in the surround well, n=4): 145.90 ± 28.84 nM
[Ca++]i spikes on capsaicin application (TRPV1; capsaicin 3 second 100 nM by fast superfusion): produced [Ca++]i spikes
SMILES: COc1cc(CNC(=O)CCCC/C=C/C(C)C)ccc1O [capsaicin]

effect on capsaicin-induced [Ca++]i spikes (TRPV1; capsazepine 100 nM, capsaicin 100 nM 3 second): almost completely blocked
SMILES: Oc1cc2c(cc1O)CN(C(=S)NCCc1ccc(Cl)cc1)CCC2 [capsazepine]
